Results from ChEMBL document CHEMBL5518215, “Unlocking Antibacterial Potential: Key-Site-Based Regulation of Antibacterial Spectrum of Peptides” (J Med Chem, 2024).
Active and inactive are the calls of the source. The rule behind the calls is not given here.

Experiments:
Acinetobacter baumannii = assay: Antimicrobial activity against Acinetobacter baumannii 1.6769 assessed as absence bacterial growth measured after 18 to 24 hrs incubation by NCCLS method; assay type: functional; conditions: time 18-24 hrs
[1] = Cytotoxicity against mouse RAW264.7 cells assessed as cell survival rate measured after 8 hrs by MTT assay; assay type: toxicity, cell-based
Erythrocyte = assay: Hemolytic activity in human RBC at effective concentration measured after 1 hr by microplate reader analysis; assay type: toxicity, cell-based
Cell membrane [2] = assay: Induction of cytoplasmic membrane disruption in Escherichia coli 25922 assessed as increase in fluorescence intensity measured upto 30 mins by DiSC3-5 probe based assay; assay type: cell membranes; conditions: dose 2-64 µM
[3] = tested on: Staphylococcus epidermidis; assay: Antimicrobial activity against Staphylococcus epidermidis 12228 assessed as absence bacterial growth measured after 18 to 24 hrs incubation by NCCLS method; assay type: functional; conditions: time 18-24 hrs
Escherichia coli [4] = assay: Induction of ROS production in mid-log phase Escherichia coli 25922 assessed as fluorescence intensity at 1 to 64 uM by DCFH-DA assay; assay type: functional, organism-based; conditions: dose 1-64 µM
Escherichia coli [5] = assay: Antibacterial activity against Escherichia coli 25922 assessed as absence bacterial growth measured after 18 to 24 hrs incubation at pH 4 by NCCLS method; assay type: functional; conditions: time 18-24 hrs
[6] = Antimicrobial activity against Salmonella pullorum C7913 assessed as absence bacterial growth measured after 18 to 24 hrs incubation by NCCLS method; assay type: functional, Salmonella enterica subsp. enterica serovar Pullorum; conditions: Salmonella enterica, time 18-24 hrs
[7] = Antimicrobial activity against Salmonella pullorum C7913 assessed as bacterial killing measured after 16 hrs incubation; assay type: functional, Salmonella enterica subsp. enterica serovar Pullorum; conditions: Salmonella enterica
Escherichia coli [8] = assay: Antimicrobial activity against Escherichia coli K88 assessed as absence bacterial growth measured after 18 to 24 hrs incubation by NCCLS method; assay type: functional; conditions: time 18-24 hrs
Enterococcus faecalis = assay: Antimicrobial activity against Enterococcus faecalis 29212 assessed as bacterial killing measured after 16 hrs incubation; assay type: functional
Staphylococcus aureus [9] = assay: Outer membrane permeabilization/cell wall in Staphylococcus aureus 29213 assessed as fluorescence intensity of NPN measured at 2 to 128 uM after 1 hr by spectrophotometry; assay type: functional, organism-based; conditions: dose 2-128 µM
Bacillus cereus [10] = assay: Antimicrobial activity against Bacillus cereus 1.932 assessed as bacterial killing measured after 16 hrs incubation; assay type: functional
Escherichia coli [11] = assay: Antimicrobial activity against Escherichia coli 25922 assessed as absence bacterial growth measured after 18 to 24 hrs incubation in presence of MgCl2 by NCCLS method; assay type: functional; conditions: time 18-24 hrs
Escherichia coli [12] = assay: Antibacterial activity against Escherichia coli 25922 assessed as absence bacterial growth measured after 18 to 24 hrs incubation at pH 6 by NCCLS method; assay type: functional; conditions: time 18-24 hrs
Lipopolysaccharide (LPS) = assay: Binding affinity to Escherichia coli O111:B4 LPS assessed as fluorescence intensity measured after 1 hr by spectrophotometry; assay type: subcellular; conditions: dose 2-16 µM
Staphylococcus aureus [13] = assay: Antimicrobial activity against Staphylococcus aureus 29213 assessed as absence bacterial growth measured after 18 to 24 hrs incubation by NCCLS m; assay type: functional; conditions: time 18-24 hrs
[14] = Hemolytic activity in human RBC at effective concentration at 128 uM measured after 1 hr by microplate reader relative to control; assay type: toxicity, cell-based, Erythrocyte; conditions: human red blood cells (erythrocytes), read-out: Activity
Salmonella typhimurium [15] = assay: Antimicrobial activity against Salmonella typhimurium C7731 assessed as bacterial killing measured after 16 hrs incubation; assay type: functional, Salmonella enterica subsp. enterica serovar Typhimurium; conditions: Salmonella enterica
Staphylococcus aureus [16] = assay: Antimicrobial activity against Staphylococcus aureus 29213 assessed as absence bacterial growth measured after 18 to 24 hrs incubation by NCCLS method; assay type: functional; conditions: time 18-24 hrs
Cell membrane [17] = assay: Induction of membrane disruption in Staphylococcus aureus 29213 assessed as increase in extracellular ATP level at 4 to 32 uM measured after 1 hr; assay type: cell membranes; conditions: dose 4-32 µM
Bacillus cereus [18] = assay: Antimicrobial activity against Bacillus cereus 1.932 assessed as absence bacterial growth measured after 18 to 24 hrs incubation by NCCLS method; assay type: functional; conditions: time 18-24 hrs
Staphylococcus aureus [19] = assay: Effect on inner membrane fluidity in Staphylococcus aureus 29213 assessed as reduction in intracellular membrane fluidity by measuring fluorescence intensity of Laurdan-GP after 60 mins by spectrophotometry; assay type: functional, organism-based
Staphylococcus aureus [20] = assay: Inhibition of respiratory chain dehydrogenase activity in mid-log phase Staphylococcus aureus 29213 measured after 4 hrs by Red-tetraazoline based spectrophotometry assay
Escherichia coli [21] = assay: Inhibition of respiratory chain dehydrogenase activity in mid-log phase Escherichia coli 25922 measured after 4 hrs by Red-tetraazoline based spectrophotometry assay
DNA [22] = assay: Binding affinity to DNA in Staphylococcus aureus 29213 incubated for 1 hr by electrophoresis; assay type: nucleic-acid assay
[23] = Cytotoxicity against human HEK-293T cells assessed as cell survival rate at 64 uM measured after 8 hrs by MTT assay relative to control; assay type: toxicity, cell-based; conditions: read-out: Activity
Escherichia coli [24] = assay: Antimicrobial activity against Escherichia coli 25922 assessed as absence bacterial growth measured after 18 to 24 hrs incubation in presence of 50% serum by NCCLS method; assay type: functional; conditions: time 18-24 hrs
Staphylococcus aureus [25] = assay: Antimicrobial activity against Staphylococcus aureus 25923 assessed as bacterial killing measured after 16 hrs incubation; assay type: functional
Salmonella typhimurium [26] = assay: Antimicrobial activity against Salmonella typhimurium C7731 assessed as absence bacterial growth measured after 18 to 24 hrs incubation by NCCLS method; assay type: functional, Salmonella enterica subsp. enterica serovar Typhimurium; conditions: Salmonella enterica, time 18-24 hrs
Lipoteichoic acid = assay: Binding affinity to Staphylococcus aureus LTA assessed as fluorescence intensity measured after 1 hr by spectrophotometry; conditions: dose 1-64 µM
Cell membrane [27] = assay: Induction of cytoplasmic membrane disruption in Escherichia coli 25922 assessed as increase in fluorescence intensity at 2 to 64 uM by DiSC3-5 probe based assay; assay type: cell membranes; conditions: dose 2-64 µM, time <= 30.0 min, TDE = time-dependent effect
Escherichia coli [28] = assay: Antibacterial activity against Escherichia coli 25922 assessed as bactericidal rate by measuring reduction in bacterial count at 1 times MBC concentration measured at 15 secs by time-kill kinetic assay; assay type: functional; conditions: time 15 sec; 15 s
Listeria monocytogenes [29] = assay: Antimicrobial activity against Listeria monocytogenes 1.10753 assessed as absence bacterial growth measured after 18 to 24 hrs incubation by NCCLS method; assay type: functional; conditions: time 18-24 hrs
DNA [30] = assay: Binding affinity to DNA in Escherichia coli 25922 incubated for 1 hr by electrophoresis; assay type: nucleic-acid assay
Staphylococcus aureus [31] = assay: Induction of morphological changes in Staphylococcus aureus 29213 assessed as cavity between cell wall and cytoplasmic membrane by using transmission electron microscopy; assay type: functional, organism-based
Pseudomonas aeruginosa = assay: Antimicrobial activity against Pseudomonas aeruginosa 27853 assessed as bacterial killing measured after 16 hrs incubation; assay type: functional
[32] = Cytotoxicity against porcine IPEC-J2 cells assessed as cell survival rate measured after 8 hrs by MTT assay; assay type: toxicity, cell-based, Sus scrofa; conditions: pig
Escherichia coli [33] = assay: Antimicrobial activity against Escherichia coli 25922 assessed as absence bacterial growth measured after 18 to 24 hrs incubation in presence of NH4Cl by NCCLS method; assay type: functional; conditions: time 18-24 hrs
Escherichia coli [34] = assay: Induction of morphological changes in Escherichia coli 25922 assessed as changes in cell surface by measuring signs of disruption by using scanning electron microscopy; assay type: functional, organism-based
Listeria monocytogenes [35] = assay: Antimicrobial activity against Listeria monocytogenes 1.10753 assessed as bacterial killing measured after 16 hrs incubation; assay type: functional
Escherichia coli [36] = assay: Antimicrobial activity against Escherichia coli 25922 assessed as bacterial killing measured after 16 hrs incubation; assay type: functional
Staphylococcus aureus [37] = assay: Antimicrobial activity against Methicillin-resistant Staphylococcus aureus 43300 assessed as absence bacterial growth measured after 18 to 24 hrs incubation by NCCLS method; assay type: functional; conditions: time 18-24 hrs

H-GKLWLKAGKLWLKGGKLWLKG-NH2
MIC (Acinetobacter baumannii): 2 µM
IC50 at 8 h [1]: > 64 µM
HC10 (Erythrocyte): > 128 µM
Activity (Cell membrane [2]): Dose-Dependent Effect
MIC [3]: 4 µM
Activity (Escherichia coli [4]): Active
MIC (Escherichia coli [5]): > 64 µM
MIC [6]: 1 µM
MBC [7]: 1 µM
MIC (Escherichia coli [8]): 0.5 µM
MBC (Enterococcus faecalis): 8 µM
permeability (Staphylococcus aureus [9]): Permeable
MBC (Bacillus cereus [10]): 2 µM
MIC (Escherichia coli [11]): 8 µM
MIC (Escherichia coli [12]): 2 µM
Activity (Lipopolysaccharide (LPS)): Dose-Dependent Effect
MIC (Staphylococcus aureus [13]): 4 µM
hemolysis at 1 h, 128 µM [14]: < 10%
MBC (Salmonella typhimurium [15]): 32 µM
MIC (Staphylococcus aureus [16]): 4 µM
Activity (Cell membrane [17]): Active
MIC (Bacillus cereus [18]): 2 µM
Activity (Staphylococcus aureus [19]): Active
inhibition (Staphylococcus aureus [20]): Active
inhibition (Escherichia coli [21]): Active
Activity (DNA [22]): Active
viability at 8 h, 64 µM [23]: > 80%
MIC (Escherichia coli [24]): > 32 µM
MBC (Staphylococcus aureus [25]): 4 µM
MIC (Salmonella typhimurium [26]): 8 µM
Activity (Lipoteichoic acid): Dose-Dependent Effect
Activity (Cell membrane [27]): Tde
inhibition (INH) (Escherichia coli [28]): 99.99%
MIC (Listeria monocytogenes [29]): > 32 µM
Activity (DNA [30]): Active
Activity (Staphylococcus aureus [31]): Active
MBC (Pseudomonas aeruginosa): 8 µM
IC50 at 8 h [32]: > 64 µM
MIC (Escherichia coli [33]): 2 µM
Activity (Escherichia coli [34]): Active
MBC (Listeria monocytogenes [35]): > 32 µM
MBC (Escherichia coli [36]): 2 µM
MIC (Staphylococcus aureus [37]): 4 µM
